According to patent US20080262228A1, “Metabolites of 5-fluoro-8- quinoline and methods of preparation and uses thereof” (Wyeth, priority 2006, published 2008):
Counter-ions that a name gives are not always drawn. One block for each molecule: values may come before it.

Legend:
[1] = Turnover to metabolites in cryopreserved hepatocytes; details: 100 μM, 1 hr
Description: Chromatographic analyses were performed with a Waters Alliance model 2695 HPLC system (Waters Corp., Milford, Mass.) that was equipped with a built-in autosampler. The column eluent was monitored with a model 996 diode array UV detector, set to monitor 250 nm, and a FloOne β Model A525 radioactivity flow detector (Perkin Elmer) with a 250 μL flow cell. Separation of the parent compound from metabolites was accomplished using a Discovery C18 column, 250×4.6 mm, 5 μm (Supelco, Bellefonte, Pa.) at an ambient temperature of approximately 20° C. Mobile phase A was 10 mM ammonium acetate (pH 4.5) and mobile phase B was acetonitrile and they were delivered at 1 mL/min using the gradient described in Table 10. The Ultima Flo M scintillant flow rate was 3 mL/min.
Flo-One analytical software (version 3.65) was utilized to integrate the radioactive peaks. Means and standard deviations were calculated using Microsoft Excel® 2000. Micromass MassLynx software (version 4.0, Waters Corp.) was used for control of LC/MS equipment and recording of data from LC/MS analyses.

[2] = Metabolite profiling in liver microsomes and S9; format: in vitro ADME, rat, dog, monkey, human; details: liver microsomes and S9, 10 μM COMPOUND I, 30 min; species letters not defined
Description: Microsomal incubations for metabolite profiling were similar to those described above for intrinsic clearance determination (see Table 1). Aliquots of COMPOUND I (10 μL), dissolved in DMSO:methanol (1:9), were added to a 96-well plate containing phosphate buffer, and MgCl2 and the liver microsomes at 37° C. using the same automation apparatus as for the stability study described hereinabove. The reactions were initiated by the addition of the UDPGA and NADPH generating system. The final incubation volume for all samples was 1 mL and the length of incubation was 30 min. […] Three 250 μL aliquots were transferred to a 96-well plate containing 900 μL acetonitrile to precipitate the protein. […] The samples were then reconstituted in 150 μL of 20% methanol in water. The three aliquots for each sample were pooled and analyzed by LC/MS.
S9 incubation buffer and cofactors were chosen to allow N-acetylation and carbamoyl glucuronidation in addition to oxidative and glucuronidation pathways possible in liver microsomes. Incubations of sulfamethazine and SCA-136 with liver S9 were used as positive controls for N-acetylation and carbamoyl glucuronidation, respectively. Following a 30 min. incubation, 750 μL from each sample were added to 900 μL acetonitrile. Following centrifugation and evaporation of the supernatant, the samples were reconstituted in 450 μL of 20% methanol in water for analysis by HPLC/UV and LC/MS (see below).
The HPLC system used for mass spectrometric analysis was an Agilent 1100 HPLC (Agilent Technologies, Palo Alto, Calif.) equipped with a binary pump and a diode array UV detector. The UV detector was set to monitor 190-400 nm. Separations were accomplished on a Luna C18 column (150×2.1 mm, 5 μm) (Phenomenex Incorporated, Torrance, Calif.).
The mass spectrometer used for metabolite characterization was a Finnigan LCQ Deca ion trap mass spectrometer (Thermo Electron Corp.). […] Full scan and data dependent MS2 and MS3 mass spectra were recorded. Finnigan Xcalibur software (version 1.3) was used for control of equipment and recording of data from UV and LC/MS analyses.
Chromatographic profiles of COMPOUND I (10 μM) metabolites in incubations with liver microsomes in the presence of NADPH are presented in FIG. 1. Chromatographic profiles of COMPOUND I (10 μM) metabolites in incubations with liver microsomes in the presence of NADPH and UDPGA are presented in FIG. 2. Chromatographic profiles of COMPOUND I (10 μM) metabolites in incubations with liver S9 in the presence of NADPH, UDPGA and acetyl coenzyme A (CoA) are presented in FIG. 3. In incubations containing NADPH, UDPGA and acetyl CoA, fourteen Phase I metabolites (M1, M6, M8, M12, M13, M14, M15, M16, M17, M18, M20, M21, M22 and M23) and six Phase II metabolites (M2, M3, M5, M7, M9 and M10) were observed. In incubations without cofactors, no metabolites were observed.
LC/MS analysis was conducted on extracts of mouse, rat, monkey and human liver microsomes and S9. The mass spectral data for the characterized COMPOUND I metabolites are discussed below.

[3] = In vivo metabolism and excretion of [14C]COMPOUND I in male beagle dogs, single oral 3 mg/kg dose; set-up: species or system dog; details: 3 mg/kg oral
Description: Dose preparation, animal dosing, and specimen collection were performed at Wyeth Research, Collegeville, Pa. The vehicle contained 2% (w/v) polysorbate 80, NF and 0.5% (w/v) methylcellulose (4000 cps) in water. [^14C]COMPOUND I trisuccinate salt (50.25 mg) and non-labeled COMPOUND I trisuccinate salt (331.9 mg) were suspended in 72 mL of the vehicle by grinding with a mortar and a pestle. The target [^14C]COMPOUND I concentration was approximately 3 mg/mL as free base and 48 μCi/mL with a target specific activity of 16 μCi/mg. Three pre- and post-dose aliquots (100 μL) were taken for the determination of radiochemical purity, drug and radioactivity concentrations and specific activity (see below).
Four male beagle dogs, weighing from 9.4 to 11.5 kg at the time of dosing, were from an in-house colony. Non-fasted dogs were given a single 3 mg/kg (approximately 48 μCi/kg) dose of [^14C]COMPOUND I at a volume of 1 mL/kg via intragastric gavage. Animals were provided Purina dog chow and water ad libitum, and were housed individually in metabolic cages.
Blood samples were collected from the jugular vein at 1, 4, 8, 24, 48, 72 and 120 hr after dose administration into tubes containing potassium EDTA as the anticoagulant and then placed on ice. Aliquots of 200 μL were removed and plasma was harvested immediately from the remaining blood by centrifugation at 4° C. Urine samples were collected into tubes on dry ice from 0-24 and 24-48 hr, and then at ambient temperature at 24 hr intervals for 7 days post-dose. Fecal samples were collected at 24 hr intervals for 7 days post-dose at room temperature. Cage rinses were collected daily by rinsing each cage with approximately 500 mL of 30% ethanol in water. The dose aliquots and biological specimens were stored at approximately −70° C. until analysis.
Triplicate aliquots of diluted dose (20 μL), dose fractions (10 μL) and plasma (50 μL), urine (200 μL) and cage wash (500 μL) from individual dogs were analyzed for radioactivity content. The samples were assayed in a Tri-Carb Model 3100TR liquid scintillation counter (Perkin Elmer) using 5 mL of Ultima Gold scintillation cocktail.
Fecal samples from individual dogs were weighed and homogenized in water at a volume-to-weight ratio of about 4:1 with a Silverson sealed-unit homogenizer at ambient temperature. Triplicate aliquots of whole blood (50 μL) and fecal homogenates (approximately 0.2 g) were placed into Combusto-cones with Combusto-pads and allowed to dry overnight. Samples were combusted with a model 307 Tri-Carb Sample Oxidizer, equipped with an Oximate-80 Robotic Automatic Sampler (Perkin Elmer). The liberated ^14CO2 was trapped with Carbo-Sorb® E carbon dioxide absorber, mixed with PermaFluor® E+liquid scintillation cocktail, and counted in a Tri-Carb Model 3100 TR/LL liquid scintillation counter.
Plasma samples were pooled by mixing equal volumes from four animals at each time point (1, 4, 8 and 24 hr). Aliquots of 2.0 mL of pooled plasma were mixed with 2.0 mL of acetonitrile, placed on ice for about 10 min, and then centrifuged at 4° C. The supernatant was transferred to a clean tube. The protein pellets were extracted two more times with 2.0 mL of acetonitrile. The supernatants from precipitation and extraction of each sample were pooled, mixed, and evaporated at 22° C. under nitrogen in a TurboVap LV evaporator (Caliper Life Sciences, Hopkinton, Mass.) to about 0.8 mL. The concentrated extract was centrifuged, the supernatant volume measured and the extraction efficiency was determined by analyzing duplicate 10 μL aliquots for radioactivity concentrations. For metabolite profiling, an aliquot of the supernatant (200 μL) was injected onto the HPLC column as described hereinbelow, and fractions were collected at 20 second intervals into 96-well Lumaplates (Perkin Elmer).

[4] = In vivo metabolism of [14C]COMPOUND I in Sprague-Dawley rats, single oral 5 mg/kg dose; set-up: species or system rat; details: for Chromatographic Distribution of Radioactivity in Pooled Plasma Samples: 5 mg/kg oral [14C]COMPOUND I
Description: Dose preparation, animal dosing, and specimen collection were performed at Wyeth Research, Collegeville, Pa. The vehicle contained 2% (w/v) polysorbate 80, NF and 0.5% (w/v) methylcellulose (4000 cps) in water. [^14C]COMPOUND I trisuccinate salt (36.6 mg) and non-labeled COMPOUND I trisuccinate salt (26.7 mg) were dissolved in 1 mL of ethanol and suspended in 35 mL of the vehicle with stirring. The target [^14C]COMPOUND I concentration was approximately 1 mg/mL as free base and 70 μCi/mL with a target specific activity of 70 μCi/mg. Three pre- and post-dose aliquots (100 μL) were taken for the determination of radiochemical purity, drug and radioactivity concentrations and specific activity (see below).
Male rats weighing from 323 to 354 g and female rats weighing from 270 to 317 g at the time of dosing were purchased from Charles River Laboratories (Wilmington, Mass.). Non-fasted rats were given a single 5 mg/kg (˜350 μCi/kg) dose of [^14C]COMPOUND I at a volume of 5.0 mL/kg via intragastric gavage. Three rats were dosed for each time point. Animals were provided Purina rat chow and water ad libitum, and were kept individually in metabolism cages.
Blood samples were collected at 1, 3, 6 and 24 hr from male rats and at 1 and 3 hr from female rats after dose administration by cardiac puncture into tubes containing EDTA as the anticoagulant and placing them on ice. Triplicate aliquots (50 μL) of whole blood were removed and plasma was immediately obtained from the remaining blood by centrifugation at 4° C. Whole brain samples were collected after saline perfusion at 1, 3, 6 and 24 hr post-dose from male rats and at 1 and 3 hr post-dose from female rats. Urine samples were collected on dry ice from male rats at intervals of 0-6 and 6-24 hr post-dose. Feces were collected from male rats at 0-24 hr post-dose at room temperature. The biological specimens and aliquots of the dose suspension were stored at approximately −70° C. until analysis.
Triplicate aliquots of diluted dose (20 μL), dose fractions (10 μL), and plasma (50 μL) and urine (100 μL) from individual rats were analyzed for radioactivity concentrations. Radioactivity determinations were made with a Tri-Carb Model 3100 TR liquid scintillation counter (LSC) (Perkin Elmer) using 5 mL of Ultima Gold as the scintillation fluid.
Brain and fecal samples from individual rats were weighed and homogenized in water at a volume-to-weight ratio of about 3:1 and 5:1, respectively, with a Polytron PT homogenizer at ice-cold temperature. Duplicate aliquots of blood (50 μL), brain homogenates (0.2 g) and fecal homogenates (0.2 g) were placed on Combusto-cones with Combusto-pads and allowed to dry overnight. Samples were combusted with a model 307 Tri-Carb Sample Oxidizer, equipped with an Oximate-80 Robotic Automatic Sampler (Perkin Elmer). The liberated ^14CO2 was trapped with Carbo-Sorb E carbon dioxide absorber, mixed with PermaFluor® E^+ liquid scintillation cocktail, and counted in a Tri-Carb Model 3100 TR/LL liquid scintillation counter (Perkin Elmer).
Plasma samples were pooled by equal volumes from three animals at each time point (1, 3, 6 and 24 hr for males; 1 and 3 hr for females). Aliquots of 2 mL of pooled plasma were mixed with 2 mL of acetonitrile, placed on ice for about 10 min, and then centrifuged at 4° C. The supernatant was transferred to a clean tube. The protein pellets were extracted two more times with 4 mL of acetonitrile. The supernatants from precipitation and extraction of each sample were pooled, mixed, and evaporated at 22° C. under nitrogen in a TurboVap LV evaporator (Caliper Life Sciences, Hopkinton, Mass.) to about 1.0 mL. The concentrated extract was centrifuged, the supernatant volume measured and the extraction efficiency was determined by analyzing duplicate 10 μL aliquots for radioactivity concentrations.

Molecule: [^14C]7-Ethoxycoumarin [reference compound]
turnover (positive control) ([1]; dog hepatocytes): 9%
turnover (positive control) ([1]; human hepatocytes): 6%
turnover (positive control) ([1]; rat hepatocytes): 10%

Molecule: Methoxyquinolinyl-piperazine [Metabolite P1]
Species (in which the metabolite was characterized) [2]: R, D, M, H

Molecule: O=S(=O)(O)Oc1cc(N2CCN(C3CCN(c4ccc(F)c5cccnc45)CC3)CC2)c2ncccc2c1 [Metabolite M24, O-Desmethyl COMPOUND I sulfate]
Source ([3]; P, plasma, F, feces): P, F
percent of total fecal radioactivity ([3]; pooled 0-24 hr fecal sample): 4.6%
percent of total fecal radioactivity ([3]; pooled 24-48 hr fecal sample): 19.3%

Molecule: COC1=CC(=O)c2ncccc2C1=O [Metabolite M1, 6-Methoxy-quinoline-5,8-dione]
Species (in which the metabolite was characterized) [2]: R, D, M, H

Results, then the molecule that gave them:

Species (in which the metabolite was characterized) [2]: R, M, H
Molecule: COc1cc(N2CCN(C3CCN(C4=CC(=O)C(=O)c5cccnc54)CC3)CC2)c2ncccc2c1 [Metabolite M16, Desfluoro COMPOUND I quinone]

Species (in which the metabolite was characterized) [2]: R, D, M, H
Molecule: O=C1C=C(N2CCN(C3CCN(c4ccc(F)c5cccnc45)CC3)CC2)c2ncccc2C1=O [Metabolite M23, Desmethyl COMPOUND I quinone]

Chromatographic Distribution of Radioactivity in Pooled Plasma Samples ([4]; female rats, 1 hr): 56.8%
Chromatographic Distribution of Radioactivity in Pooled Plasma Samples ([4]; female rats, 3 hr): 48.2%
percent of total plasma radioactivity ([4]; male and female rats, range over time points, 5 mg/kg oral): 41.3-56.8%
Chromatographic Distribution of Radioactivity in Pooled Plasma Samples ([4]; male rats, 1 hr): 52.9%
Chromatographic Distribution of Radioactivity in Pooled Plasma Samples ([4]; male rats, 3 hr): 43.1%
Chromatographic Distribution of Radioactivity in Pooled Plasma Samples ([4]; male rats, 6 hr): 41.3%
Molecule: O=C(O)C1OC(Oc2cc(N3CCN(C4CCN(c5ccc(F)c6cccnc56)CC4)CC3)c3ncccc3c2)C(O)C(O)C1O (stereo not shown) [Metabolite M11, O-Desmethyl COMPOUND I glucuronide]
